# Experimental data from patent US3989598A (priority 1962, dated 1976).
# Where a name gives a salt, the structure may show the parent alone.
# Test: solubility
# Format: physicochemical
# Conditions: listed as hydrochloride
structure (smiles),measurement,setting,value
COc1cccc2c1C(=O)c1c(O)c3c(c(O)c1C2=O)C[C@@](O)(C(C)=O)C[C@@H]3O[C@H]1C[C@H](N)[C@H](O)[C@H](C)O1 [13057 RP daunorubicin hydrochloride],solubility in chloroform,chloroform,slightly soluble
same,solubility in water,water,soluble
